The test system of one assay is HeLa cells. Briefly: Action in inhibiting the lowering of MTT reduction capacity by Aβ1-40. The conditions noted are these: Homo sapiens; HeLa cells, Aβ1-40 (100 nM); read-out: IC50 (action in inhibiting the lowering of the MTT reduction capacity by Aβ1-40). The assay is classed as cell-based. The procedure: The HeLa cells employed were purchased from the Dainippon Pharmaceutical Co.
The HeLa cells were seeded by suspension in MEM (Minimum essential medium; produced by the Sigma Chemical Co.) containing 10% inactivated FBS (foetal bovine serum) such that there were 1,000 per well in a 96-well microplate, and then culturing was carried out overnight in an incubator at 37° C. in the presence of 5% CO2.
The test compound was dissolved in dimethyl sulphoxide (DMSO) and diluted with the MEM medium so that the final concentration of DMSO was no more than 0.1 wt %, and added to the cells seeded the previous day. […] Overnight culturing was carried out using an incubator at 37° C. in the presence of 5% CO2, with 100 μL/well of MEM medium containing 5% deactivated FBS.
Now, prior to use, the Aβ1-40 had been dissolved in buffer and left overnight so that the amyloid coagulated.
In order to determine the percentage inhibition of the test compound, cells alone, cells where Aβ1-40 had been added, and cells where only the test compound had been added, were also incubated overnight under the same conditions.
The following day, there was added 10 μL/well of MTT [3-(4,5-dimethylthiazol-2-yl)-2,5-diphenyltetrazolium bromide: produced by Wako Pure Chemical Industries] prepared at a concentration of 5 mg/mL with phosphate buffered saline (PBS), and incubation carried out for 2 hours at 37° C. in the presence of 5% CO2. The medium was then eliminated and the formazan dye produced measured […] (A570 nm-A650 nm) using a Microplate Reader (produced by the Molecular Devices Co.), by dissolving with the addition of 100 μL per well of isopropanol. In this way, the change in the MTT reduction capacity of the HeLa cells was measured.
The percentage inhibition (%) by the test compound was determined from the following formula. inhibition (%) [[…]/(a−c)]×100 where • a=MTT reduction capacity when untreated • b=MTT reduction capacity when Aβ1-40 and the test compound are added • c=MTT reduction capacity when only Aβ1-40 is added
Background: Tetrazolium assays rely on reduction of a dye to a coloured formazan, in cell work by metabolically active cells.

For a further assay, the target named is Aβ1-42 (Homo sapiens, UniProt P05067). The experiment in a line: Aβ fibril-formation inhibiting action, thioflavin binding assay. The assay is classed as biochemical. The conditions noted are these: for activity at 100 µg/mL: Aβ1-42 25 μM + compound 100 μg/mL, incubation 2 days at 37° C., Aβ1-42 alone taken as 100, read-out: fibril-formation inhibiting action (fluorescent intensity %); for Aβ fibril-formation (result in words): compound added prior to fibril formation, thioflavin fluorescence. As for the experimental part:
(§1) The Aβ fibril-formation inhibiting action and fibrillar Aβ breakdown action were evaluated using the thioflavin binding assay method. The details of the test method are based on the method described in J. Biol. Chem. Vol. 274, 25945-25952 (1999).
In the measurement of the inhibition of Aβ fibril-formation, the concentration of the Aβ1-42 was 25 μM and the concentration of the compound synthesized in Production Example 4 or Production Example 12 was 100 μg/mL in each case. The measurement of the Aβ fibril-formation inhibiting action was carried out following incubation for 2 days at 37° C. of the Aβ1-42 alone and of the Aβ1-42 to which the compound synthesized in Production Example 4 or Production Example 12 had been added.
(§2) The measurements of the Aβ fibril-formation inhibiting action and of the fibrillar Aβ breakdown action were carried out by placing a 100 μL sample obtained by pretreatment as described above, plus 800 μL of distilled water, 1 mL of glycine (100 mM) and 50 μL of thioflavin (100 μM) in a cuvette, and measuring the fluorescence at an excitation wavelength of 435 nm and a fluorescence wavelength of 490 nm.
(§3) The figures in the table show the calculated percentages taking the fluorescent intensity obtained when the fluorescence of the sample obtained by incubating Aβ1-42 (25 μM) alone by the above method, and measured at an excitation wavelength of 435 nm and a fluorescence wavelength of 490 nm, was taken as 100. The figures are in the form of the average value ±standard deviation, for the three to nine averages obtained in three to nine tests. […] “Aβ” is for the Aβ1-42.

The next assay addresses fibrillar Aβ1-42 (Homo sapiens, UniProt P05067). Briefly: Fibrillar Aβ breakdown action, thioflavin binding assay. Format: biochemical. To be noted: for fibrillar breakdown action (fluorescent intensity %): Aβ1-42 25 μM incubated 2 or 3 days at 37° C., then compound 100 μg/mL, further 2 days, Aβ1-42 alone taken as 100; for fibrillar Aβ breakdown action (result in words): compound added after fibril formation, thioflavin fluorescence. As for the experimental part: as §1
In the measurement of the fibrillar Aβ breakdown action, the concentration of the Aβ1-42 was 25 μM and the concentration of the compound synthesized in Production Example 4 or Production Example 12 was 100 μg/mL in each case. After incubating the Aβ1-42 for 2 days or 3 days at 37° C., the compound synthesized in Production Example 4 or Production Example 12 was or was not added, and then further incubation performed for 2 days, after which measurement of the fibrillar Aβ breakdown action was performed.
as §2, §3

Assay [1] concerns acute sections from the hippocampus. The experiment in a line: Suppression of Aβ1-42-induced long-term potentiation impairment (fEPSP slope) in acute hippocampal sections. The assay is classed as cell-based, Wistar rats. As for the experimental part:
The method for testing the suppression of the impairment of long-term potentiation was based on that described in J. Neurosci. Vol. 20, 2003-10 (2000). That is to say, acute^i sections of thickness 400 μm were prepared from the hippocampus of the brains of 3-4 week old male Wistar rats. These acute sections were immersed in artificial cerebrospinal fluid in which β-amyloid protein (Aβ1-42: produced by the Sigma Chemical Co.) and compound from Production Examples 1 or 12 had been dissolved, and pretreatment carried out for 5 hours.
In the measurement using the compound from Production Example 1, the concentration of the Aβ1-42 in the artificial cerebrospinal fluid was 500 nM and the concentration of the compound from Production Example 1 was 1 μg/mL. In the measurement using the compound from Production Example 12, the concentration of the Aβ1-42 in the artificial cerebrospinal fluid was 1 μM and the concentration of the compound from Production Example 12 was 3 μg/mL. Now, the Aβ1-42 was used after coagulation of the amyloid by leaving overnight.
100 pulses of high frequency stimulation at 100 Hz were applied to the pretreated acute sections, and the field excitatory postsynaptic potential: fEPSP) measured by an extracellular recording method.
The fEPSP was measured at 30 second intervals following application of the high frequency stimulation and the fEPSP slope (units [%]) measured. The average values of the slope over 0-20 minutes, 20-40 minutes and 40-60 minutes were determined. This test was repeated five times over. In the table, the figures are the average values ±standard deviation for the five averages obtained in the five tests. […] “Aβ” denotes the Aβ1-42.
As controls, measurements were made of the fEPSP [mV] under the same conditions for acute sections pretreated with the artificial cerebrospinal fluid alone, acute sections pretreated with the artificial cerebrospinal fluid in which Aβ1-42 had been dissolved, and acute sections pretreated with artificial cerebrospinal fluid in which only the compound from Production Example 1 or 12 had been dissolved, and then the average value of the fEPSP slope [%] obtained.

Where [2] appears, read: Test 2, Aβ1-42 (1 μM) + compound 3 μg/mL.
Setting [3] is: Test 2, compound alone 3 μg/mL, no Aβ.

Chain of fibrillar Aβ1-42 (P05067 672-713): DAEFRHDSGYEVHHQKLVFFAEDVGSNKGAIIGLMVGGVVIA
Chain of Aβ1-42 (P05067 672-713): as above

`Cc1nc(Nc2cccc(O)c2)cc(Nc2cccc(O)c2)n1` [Production Example 4, 2-Methyl-N,N′-bis(3-hydroxyphenyl)pyrimidine-4,6-diamine]: in the assay with HeLa cells, the IC50 was 6 µM. Moreover, at Aβ1-42, the activity at 100 µg/mL amounted to 16.3 ± 5.3% and the “Aβ fibril-formation (result in words)” value was “Aβ fibril-formation was inhibited”. On fibrillar Aβ1-42, the “fibrillar breakdown action (fluorescent intensity %)” value is listed as 30.63 ± 1.26% and the “fibrillar Aβ breakdown action (result in words)” value is listed as “there was a fibrillar Aβ breakdown action”.
As for `Oc1cccc(Nc2ccc(Nc3cccc(O)c3)nn2)c1` [Production Example 12, N,N′-bis(3-hydroxyphenyl)pyridazine-3,6-diamine], in assay [1] (setting [2]), the “Value of fEPSP Slope [%] 0-20 minutes” value is 161.7 ± 2.6%, the “Value of fEPSP Slope [%] 20-40 minutes” value worked out at 148.1 ± 3.1% and the “Value of fEPSP Slope [%] 40-60 minutes” value is reported as 146.2 ± 4.6%. Besides, in assay [1] (setting [3]), the “Value of fEPSP Slope [%] 0-20 minutes” value was found to be 175.3 ± 7.4%, the “Value of fEPSP Slope [%] 20-40 minutes” value came to 162.9 ± 9.8% and the “Value of fEPSP Slope [%] 40-60 minutes” value was 160.8 ± 10.3%. Moreover, the “effect of compound on its own on LTP (result in words)” value in assay [1] (compound alone, no Aβ) was “inactive on its own”. For the same compound, the “impairment of the LTP due to Aβ1-42 (result in words)” value in assay [1] (pretreating 5 hours with Aβ1-42 together with the compound) was “suppressed”. At Aβ1-42, the activity at 100 µg/mL stood at 1.69 ± 1.32% and the “Aβ fibril-formation (result in words)” value is “Aβ fibril-formation was inhibited”. Further, at fibrillar Aβ1-42, the “fibrillar breakdown action (fluorescent intensity %)” value was 28.49 ± 5.17% and the “fibrillar Aβ breakdown action (result in words)” value is “there was a fibrillar Aβ breakdown action”.

For orientation: IC50 means the concentration that gives 50% inhibition.
